System: Adult rat DRG neurons
Assay: Measurement of gene expression in adult DRG neurons by real-time PCR
Format: cell-based
Procedure: Dorsal root ganglia were dissected from adult (3-6 months old) Sprague-Dawley rats, and dissociated and cultured by standard techniques (Lindsay, 1988). Briefly, ganglia were stripped of their sheaths, and incubated in 0.125% collagenase type IV (Worthington) in Ham's F12 with 10% HIHS for two 90 minute periods at 37° C. They were then washed extensively and incubated in 0.25% trypsin (Worthington) in HBSS at 37 degrees for 30 minutes. After inactivation of trypsin with 10% heat inactivated horse serum and further washing, the ganglia were dissociated by gentle trituration through a flame polished Pasteur pipet.
Neurons were plated on polyornithine and laminin coated 96-well plates in defined serum free medium consisting of Hams F-14 nutrient mixture with plus 2 mM glutamine, 0.35% bovine serum albumin (Albumax II, Gibco-BRL or Pathocyte-5, ICN), 60 ng/ml progesterone, 16 ug/ml putrescine, 400 ng/ml L-thyroxine, 38 ng/ml sodium selenite, 340 ng/ml tri-iodo-thyronine, 60 ug/ml penicillin and 100 ug/ml streptomycin (Sigma) (Davies et al., 1993). NGF (10 ng/ml) and test compounds were added to the wells shortly before or after plating as described below.
Adult rat DRG neurons were plated in 96 well plates, exposed to different concentrations of NGF for 120 hours and specific mRNA expression was analysed using the Stratagene Mx4000 real time PCR instrument. These conditions allow detection of greater than 15-fold increase in substance P mRNA content relative to GAPDH mRNA at the highest concentration of NGF used (FIG. 1). In addition, it was shown that a greater than 3-fold reduction in galanin mRNA level relative to GAPDH mRNA at the highest concentration of NGF can be measured (FIG. 1).
After culture as described above for 5 days RNA was extracted and the ratio of substance P mRNA expression determined relative to GAPDH mRNA for RNA from each of the culture wells by RT-PCR. RT-PCR was also performed to determine the ratio of galanin to GAPDH mRNA for each RNA sample. […]

NGF: nerve growth factor, the first neurotrophin identified; acts through TrkA and p75 receptors
reduction in galanin mRNA level relative to GAPDH mRNA (highest concentration of NGF (range up to 50 ng/ml), 120 hours exposure, relative to cultures with no added NGF (FIG. 1)): greater than 3 fold
increase in substance P mRNA content relative to GAPDH mRNA (highest concentration of NGF used (range up to 50 ng/ml), 120 hours exposure, 96 well plates, relative to cultures with no added NGF (FIG. 1)): greater than 15 fold
combined difference in gene expression (substance P and galanin combined in a single assay) in the absence or presence of NGF (substance P mRNA relative to galanin mRNA, 120 hours exposure (FIG. 1)): approximately 50 fold

— patent publication US20060147932A1, “Methods of screening for modulators of nerve growth factor” (priority 2003, published 2006)
